In ChEMBL document CHEMBL3994643, “Synthesis and glucose-stimulate insulin secretion (GSIS) evaluation of vindoline derivatives” (Bioorg Med Chem Lett, 2017):

System: MIN6
Test: Induction of glucose-stimulated insulin secretion in mouse MIN6 cells after 2 hrs by ELISA
Format: functional, cell-based
Conditions: MIN6, 2 h

Row | EC50 [µM] | SMILES
1 | 21 | CC[C@]12C=CCN3CC[C@@]4(c5ccc(OC)cc5N(C)[C@H]4[C@@](O)(CNC(=O)C(C)(C)C)[C@@H]1OC(C)=O)[C@@H]32
2 | 19.3 | CC[C@]12C=CCN3CC[C@@]4(c5ccc(OC)cc5N(C)[C@H]4[C@@](O)(CNC(C)=O)[C@@H]1OC(C)=O)[C@@H]32
3 | 32.6 | CCC(=O)O[C@@H]1[C@]2(CC)C=CCN3CC[C@@]4(c5ccc(OC)cc5N(C)[C@H]4[C@@]1(O)C(=O)OC)[C@@H]32
4 | 12.7 | CCC(=O)NC[C@@]1(O)[C@H](OC(C)=O)[C@]2(CC)C=CCN3CC[C@@]4(c5ccc(OC)cc5N(C)[C@@H]14)[C@@H]32
5 | 38.5 | CCC(=O)O[C@@H]1[C@]2(CC)CCCN3CC[C@@]4(c5ccc(OC)cc5N(C)[C@H]4[C@@]1(O)C(=O)OC)[C@@H]32
6 | 51 | CCC(=O)OC[C@@]1(O)[C@H](OC(C)=O)[C@]2(CC)C=CCN3CC[C@@]4(c5ccc(OC)cc5N(C)[C@@H]14)[C@@H]32
7 | > 100 | CCCCOC[C@@]1(O)[C@H](OC(C)=O)[C@]2(CC)C=CCN3CC[C@@]4(c5ccc(OC)cc5N(C)[C@@H]14)[C@@H]32
8 | > 100 | CC[C@]12C=CCN3CC[C@@]4(c5ccc(OC)cc5N(C)[C@H]4[C@@](O)(COC(=O)C(C)C)[C@@H]1OC(C)=O)[C@@H]32
9 | 41 | CC[C@]12C=CCN3CC[C@@]4(c5ccc(OC)cc5N(C)[C@H]4[C@@](O)(COC)[C@@H]1OC(C)=O)[C@@H]32
10 | > 100 | CC[C@]12C=CCN3CC[C@@]4(c5ccc(OC)cc5N(C)[C@H]4[C@@](O)(C(=O)OC)[C@@H]1OC)[C@@H]32
11 | 64.3 | CCCO[C@@H]1[C@]2(CC)C=CCN3CC[C@@]4(c5ccc(OC)cc5N(C)[C@H]4[C@@]1(O)C(=O)OC)[C@@H]32
12 | 10.4 | CC[C@]12C=CCN3CC[C@@]4(c5ccc(OC)cc5N(C)[C@H]4[C@@](O)(C(=O)OC)[C@@H]1OC(=O)C(C)C)[C@@H]32
13 | 11 | CCOC[C@@]1(O)[C@H](OC(C)=O)[C@]2(CC)C=CCN3CC[C@@]4(c5ccc(OC)cc5N(C)[C@@H]14)[C@@H]32
14 | > 100 | CCCCO[C@@H]1[C@]2(CC)C=CCN3CC[C@@]4(c5ccc(OC)cc5N(C)[C@H]4[C@@]1(O)C(=O)OC)[C@@H]32
15 | 18.5 | CCC(=O)NC[C@@]1(O)[C@H](OC(=O)C(C)C)[C@]2(CC)C=CCN3CC[C@@]4(c5ccc(OC)cc5N(C)[C@@H]14)[C@@H]32
16 | 14.2 | CC[C@]12CCCN3CC[C@@]4(c5ccc(OC)cc5N(C)[C@H]4[C@@](O)(C(=O)OC)[C@@H]1OC(=O)C(C)C)[C@@H]32
17 | 62.2 | CC[C@]12C=CCN3CC[C@@]4(c5ccc(OC)cc5N(C)[C@H]4[C@@](O)(C(=O)OC)[C@@H]1OC(=O)c1ccccc1)[C@@H]32
18 | 41.5 | CCCOC[C@@]1(O)[C@H](OC(C)=O)[C@]2(CC)C=CCN3CC[C@@]4(c5ccc(OC)cc5N(C)[C@@H]14)[C@@H]32
19 | 80.5 | CC[C@]12C=CCN3CC[C@@]4(c5ccc(OC)cc5N(C)[C@H]4[C@@](O)(C(=O)OC)[C@@H]1OC(=O)C1CCCCC1)[C@@H]32
20 | 14.2 | CCOC[C@@]1(O)[C@H](OC(=O)C(C)C)[C@]2(CC)C=CCN3CC[C@@]4(c5ccc(OC)cc5N(C)[C@@H]14)[C@@H]32
21 | 62.2 | CCO[C@@H]1[C@]2(CC)C=CCN3CC[C@@]4(c5ccc(OC)cc5N(C)[C@H]4[C@@]1(O)C(=O)OC)[C@@H]32

Row | SMILES | EC50 [µM]
22 | CC[C@]12C=CCN3CC[C@@]4(c5ccc(OC)cc5N(C)[C@H]4[C@@](O)(C(=O)OC)[C@@H]1OC(C)=O)[C@@H]32 | 50.2
23 | CC[C@]12C=CCN3CC[C@@]4(c5ccc(OC)cc5N(C)[C@H]4[C@@](O)(C(=O)OC)[C@@H]1O)[C@@H]32 | > 100
